# According to paper PMC6010526, “In Silico Approaches Applied to the Study of Peptide Analogs of Ile-Pro-Ile in Relation to Their Dipeptidyl Peptidase IV Inhibitory Properties” (Frontiers in Endocrinology, 2018):
# Where two headings read alike, the source gives them in different places. Residues, ends and D or L forms follow the SMILES beside them.
# Assays:
# [1] = test system: DPP-IV; conditions: competitive inhibitory peptides used in QSAR model, cited from earlier work
# [2] = target: T1, porcine DPP-IV (Sus scrofa, UniProt P22411); test: Stability of peptides to hydrolysis by DPP-IV (LC-MS/MS); conditions: for Hydrolysis by DPP-IV (stability), in words: 30 min incubation with DPP-IV; for Peptide hydrolyzed by DPP-IV: peptide at 1/4 of IC50, 30 min at 37°C, Tris-HCl buffer pH 8.0
# Protocol: Stability of the peptides to hydrolysis by DPP-IV was evaluated by liquid chromatography tandem mass spectrometry (LC-MS/MS) using the samples generated during the Lineweaver and Burk analysis containing DPP-IV inhibitory peptides at their IC50 values divided by 4 as previously described ([24]). Following the 30 min reaction, DPP-IV was heat inactivated by immersing samples in a water bath set at 90°C for 20 min. Test samples were subsequently diluted 40 times in mobile phase A (0.1% FA in MS water). Intact peptides were analyzed at the same concentration as the test samples. The peptide composition of the samples was determined as described previously ([25]). Briefly, an ultra-high performance liquid chromatography (UHPLC) UltiMate 3000 (Dionex, Camberley, Surrey, UK) fitted with a security guard UHPLC C18 PEPTIDE (2.1 mm, Phenomenex, Cheshire, UK) and an Aeris Peptide XB-C18 column (150 mm × 2.1 mm, 1.7 µm, Phenomenex) was used for peptide separation at 25°C. A sample volume of 2 µL was injected with a solvent delay of 4 min. The UHPLC was coupled to a quadrupole time-of-flight mass spectrometer (Q-TOF, Impact HD™, Bruker Daltonics GmbH, Bremen, Germany) using a 50–600 m/z acquisition range. The MS was fitted with an electrospray ionization source used in positive ion mode. Data acquisition was performed with Hystar software (Bruker Daltonics). Data analysis was performed with Compass Data Analysis 4.2 (Bruker Daltonics).
# [3] = target: T1, porcine DPP-IV; test: DPP-IV inhibition assay with Gly-Pro-pNA substrate; format: biochemical; set-up: purchased Sigma Aldrich (Dublin, Ireland); conditions: for IC50: porcine DPP-IV, Gly-Pro-pNA 0.200 mM, 37°C, n = 3, read-out: Experimental DPP-IV IC50
# Protocol: Peptides were dispersed in HPLC grade water at 50 and 500 µM (final concentration). The DPP-IV inhibition assay was carried out in triplicate as outlined by Nongonierma and FitzGerald ([18]). Briefly, samples (25 μL) were mixed with Gly-Pro-pNA (final concentration 0.200 mM) and DPP-IV (final concentration 0.0025 U mL^−1) in a 96-well microplate (Sarstedt, Dublin, Ireland). The microplate was incubated at 37°C for 60 min in a microplate reader (Biotek Synergy HT, Winooski, VT, USA) and absorbance was monitored at 405 nm.
# Dose–response curves were determined for peptides displaying a percentage of inhibition > 50% at 500 µM. Peptides were diluted in HPLC water at concentrations ranging from 0.37 to 500 µM (final concentration). The DPP-IV IC50 values were determined by plotting the percentage inhibition as a function of the test compound concentration. Each analysis was carried out in triplicate (n = 3).
# [4] = test system: DPP-IV; set-up: method as in PMID 1671823; conditions: after 36 min incubation; ref [47]; cited from earlier work
# [5] = cited from earlier work
# [6] = target: human dipeptidyl peptidase IV; set-up: method as in PMID 24512990; conditions: most potent peptide of Trp-Arg-Xaa library; ref [14]; read-out: DPP-IV IC50; cited from earlier work
# [7] = test system: DPP-IV; conditions: cited from earlier work
# T1 sequence (P22411 whole entry): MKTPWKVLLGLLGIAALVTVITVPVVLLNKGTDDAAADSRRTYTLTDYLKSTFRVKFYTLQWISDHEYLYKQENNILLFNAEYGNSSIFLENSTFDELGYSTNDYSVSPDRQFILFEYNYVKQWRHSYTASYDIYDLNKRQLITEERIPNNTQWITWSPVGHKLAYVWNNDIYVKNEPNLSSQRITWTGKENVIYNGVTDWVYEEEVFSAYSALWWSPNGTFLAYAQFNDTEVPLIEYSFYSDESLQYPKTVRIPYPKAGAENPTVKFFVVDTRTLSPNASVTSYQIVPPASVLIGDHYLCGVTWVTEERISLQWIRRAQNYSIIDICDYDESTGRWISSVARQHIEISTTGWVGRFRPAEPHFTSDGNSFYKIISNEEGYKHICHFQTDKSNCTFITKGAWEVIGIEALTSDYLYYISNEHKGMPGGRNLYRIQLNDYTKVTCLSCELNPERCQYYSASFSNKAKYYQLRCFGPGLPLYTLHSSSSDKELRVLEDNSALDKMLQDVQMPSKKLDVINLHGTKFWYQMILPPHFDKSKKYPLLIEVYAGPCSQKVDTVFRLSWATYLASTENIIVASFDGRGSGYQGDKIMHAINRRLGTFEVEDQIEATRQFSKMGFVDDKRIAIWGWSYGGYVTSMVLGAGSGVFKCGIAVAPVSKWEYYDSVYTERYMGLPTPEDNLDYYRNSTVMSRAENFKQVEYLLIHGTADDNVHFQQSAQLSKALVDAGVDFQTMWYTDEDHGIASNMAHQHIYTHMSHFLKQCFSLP
Compound,"Hydrolysis by DPP-IV (stability), in words [2]",Peptide hydrolyzed by DPP-IV [2],inhibition at 500 µM ([3]; peptide at 500 µM) [%],IC50 [3] [µM],further results
MPVQA,,,,,IC50 ([1]; ref [24]): 93.3 µM
"C[C@H](N)C(=O)N1CCC[C@H]1C(=O)N[C@@H](CCCNC(=N)N)C(=O)O [APR, Ala-Pro-Arg] (H-Ala-Pro-Arg-OH; N-terminus and C-terminus assumed)",not hydrolyzed by DPP-IV,NO,> 65,120 ± 3.5,
"CC[C@H](C)[C@H](N)C(=O)N1CCC[C@H]1C(=O)N[C@@H](Cc1c[nH]c2ccccc12)C(=O)O [IPW, Ile-Pro-Trp] (H-Ile-Pro-Trp-OH; N-terminus and C-terminus assumed)",partly hydrolyzed by DPP-IV,YES,,175 ± 5.5,
"N[C@@H](Cc1ccccc1)C(=O)N1CCC[C@H]1C(=O)N[C@@H](Cc1c[nH]c2ccccc12)C(=O)O [FPW, Phe-Pro-Trp] (H-Phe-Pro-Trp-OH; N-terminus and C-terminus assumed)",partly hydrolyzed by DPP-IV,YES,,54.9 ± 2.9,
"CC[C@H](C)[C@H](N)C(=O)N[C@@H](C)C(=O)N[C@H](C(=O)O)[C@@H](C)CC [IAI, Ile-Ala-Ile] (H-Ile-Ala-Ile-OH; N-terminus and C-terminus assumed)",,,9.6 ± 1.9,,"% DPP-IV inhibition ([3]; peptide at 500 µM, 500 µM): < 10%"
"CC[C@H](C)[C@H](N)C(=O)N1CCC[C@H]1C(=O)N[C@H](C(=O)O)[C@@H](C)CC [IPI, Ile-Pro-Ile]",,,> 65,,initial amount cleaved by DPP-IV [4]: 37%
LPQNIPPLT,,,,,IC50 ([1]; ref [17]): 205 µM
Ile-Pro-Pro,,,,,"Identification in human sera ([5]; following ingestion of a milk beverage enriched in lactotripeptides, ref [39]): identified in human sera"
"N[C@@H](Cc1c[nH]c2ccccc12)C(=O)N1CCC[C@H]1C(=O)N[C@@H](Cc1c[nH]c2ccccc12)C(=O)O [WPW, Trp-Pro-Trp] (H-Trp-Pro-Trp-OH; N-terminus and C-terminus assumed)",partly hydrolyzed by DPP-IV,YES,,120 ± 13.1,
LPVP,,,,,IC50 ([1]; ref [24]): 87 µM
VPGEIVE,,,,,IC50 ([1]; ref [17]): 224 µM
"N=C(N)NCCC[C@H](NC(=O)[C@H](CCCCN)NC(=O)[C@@H](N)CCCNC(=N)N)C(=O)O [RKR, Arg-Lys-Arg] (H-Arg-Lys-Arg-OH; N-terminus and C-terminus assumed)",,,< 25,,
LPLPL,,,,,IC50 ([1]; ref [21]): 325 µM
"C[C@H](N)C(=O)N1CCC[C@H]1C(=O)N[C@@H](Cc1ccccc1)C(=O)O [APF, Ala-Pro-Phe] (H-Ala-Pro-Phe-OH; N-terminus and C-terminus assumed)",not hydrolyzed by DPP-IV,NO,> 65,65.8 ± 5.5,
"CC[C@H](C)[C@H](N)C(=O)N1CCC[C@H]1C(=O)N[C@@H](C)C(=O)O [IPA, Ile-Pro-Ala] (H-Ile-Pro-Ala-OH; N-terminus and C-terminus assumed)",not hydrolyzed by DPP-IV,NO,> 65,28.3 ± 3.4,
Trp-Arg-Glu,,,,,IC50 [6]: 350 µM
"CC[C@H](C)[C@H](N)C(=O)N[C@@H](CCCNC(=N)N)C(=O)N[C@@H](Cc1ccccc1)C(=O)O [IRF, Ile-Arg-Phe] (H-Ile-Arg-Phe-OH; N-terminus and C-terminus assumed)",,,< 25,,
"CC[C@H](C)[C@H](N)C(=O)N1CCC[C@H]1C(=O)N[C@@H](Cc1ccccc1)C(=O)O [IPF, Ile-Pro-Phe] (H-Ile-Pro-Phe-OH; N-terminus and C-terminus assumed)",partly hydrolyzed by DPP-IV,YES,,47.3 ± 12.3,
Val-Pro-Pro,,,,,Identification in human sera ([5]; in vivo): identified in human sera
"CC[C@H](C)[C@H](N)C(=O)N[C@@H](CCCNC(=N)N)C(=O)N[C@@H](CCCCN)C(=O)O [IRK, Ile-Arg-Lys] (H-Ile-Arg-Lys-OH; N-terminus and C-terminus assumed)",,,< 25,,
Glu-Lys [EK],,,,,IC50 ([1]; ref [18]): 3220 µM
"N[C@@H](Cc1c[nH]c2ccccc12)C(=O)N1CCC[C@H]1C(=O)N[C@@H](Cc1ccccc1)C(=O)O [WPF, Trp-Pro-Phe] (H-Trp-Pro-Phe-OH; N-terminus and C-terminus assumed)",partly hydrolyzed by DPP-IV,YES,,160 ± 12.8,
LLQLEAIR,,,,,IC50 ([1]; ref [24]): 178 µM
"C[C@H](NC(=O)[C@@H]1CCCN1C(=O)[C@@H](N)CCCCN)C(=O)O [KPA, Lys-Pro-Ala] (H-Lys-Pro-Ala-OH; N-terminus and C-terminus assumed)",not hydrolyzed by DPP-IV,NO,> 65,74.5 ± 7,
Val-Pro-Leu [VPL],,,,,"times more potent than other food protein-derived peptides ([7]; DPP-IV inhibition, ref [5]): > 2 times; Mode of inhibition ([7]; Table S1, ref (2,3) of supplement): competitive; IC50 ([7]; ref [8]): 15.8 µM"
LPYPY,,,,,IC50 ([1]; ref [21]): 108 µM
"N[C@@H](Cc1ccccc1)C(=O)N1CCC[C@H]1C(=O)N[C@@H](Cc1ccccc1)C(=O)O [FPF, Phe-Pro-Phe] (H-Phe-Pro-Phe-OH; N-terminus and C-terminus assumed)",partly hydrolyzed by DPP-IV,YES,62.9 ± 10.1,247 ± 32.7,
IPIQY,,,,,IC50 ([1]; ref [21]): 35.2 µM
"C[C@H](N)C(=O)N1CCC[C@H]1C(=O)N[C@@H](C)C(=O)O [APA, Ala-Pro-Ala] (H-Ala-Pro-Ala-OH; N-terminus and C-terminus assumed)",not hydrolyzed by DPP-IV,NO,> 65,44.3 ± 3.2,
LPVPQ,,,,,IC50 ([1]; ref [17]): 43.7 µM
